Data as given in ChEMBL document CHEMBL1201862, “PubChem BioAssay data set” (2004).
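Values below derive from 48-hour exposures of cells grown in 96-well plates, with endpoints linearly interpolated between the two concentrations bracketing the appropriate inhibition level. Here, GI50 denotes the concentration required for 50% inhibition of growth.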 Activity calls are given as the source filed them. No stated cut-off is given here; in the data, active = GI50 up to about 1.1 µM and inactive = higher.

Columns and labels:
Experiment in all cases: growth of human tumour cells (NCI), 48 h
[1] = test system: HCT-15
[2] = test system: SF-268
[3] = test system: OVCAR-3
[4] = test system: LOX IMVI
[5] = test system: SNB-19
[6] = test system: SW-620
[7] = test system: EKVX
[8] = test system: HOP-62
[9] = test system: NCI-H23
[10] = test system: OVCAR-8
[11] = test system: SK-OV-3
[12] = test system: RXF 393
[13] = test system: M14
[14] = test system: IGROV-1
[15] = test system: MDA-N
[16] = test system: MCF7
[17] = test system: SNB-75
[18] = test system: UACC-62
[19] = test system: PC-3
[20] = test system: NCI-H226

Compound	GI50 [1] [µM]	GI50 [2]	GI50 [3]	GI50 [4]	GI50 [5]	GI50 [6]	GI50 [7]	GI50 [8]	GI50 [9]	GI50 [10]	GI50 [11]	GI50 [12]	GI50 [13]	GI50 [14]	GI50 [15]	GI50 [16]	GI50 [17]	GI50 [18]	GI50 [19]	GI50 [20]
OC1(C(Sc2cc(C(F)(F)F)cc(C(F)(F)F)c2)Sc2cc(C(F)(F)F)cc(C(F)(F)F)c2)C=CCCC1 (stereo unspecified)	1.37	2.54 µM (inactive)	2.04 µM (inactive)	1.66 µM (inactive)	2.49 µM (inactive)	1.91 µM (inactive)	2.22 µM (inactive)	3.25 µM (inactive)	2.58 µM (inactive)	2.12 µM (inactive)	2.67 µM (inactive)	1.75 µM (inactive)	1.81 µM (inactive)	2.38 µM (inactive)	2.56 µM (inactive)	1.49 µM (inactive)	2.15 µM (inactive)	1.99 µM (inactive)	–	–
Cn1cnc([N+](=O)[O-])c1Sc1nncc2[nH]cnc12	> 100	–	> 100 µM (inactive)	> 100 µM (inactive)	7.82 µM (inactive)	> 100 µM (inactive)	> 100 µM (inactive)	> 100 µM (inactive)	> 100 µM (inactive)	> 100 µM (inactive)	> 100 µM (inactive)	–	> 100 µM (inactive)	> 100 µM (inactive)	> 100 µM (inactive)	> 100 µM (inactive)	> 100 µM (inactive)	> 100 µM (inactive)	> 100 µM (inactive)	> 100 µM (inactive)
CC(=O)/C=C/CCC(=O)/C=C/C(=O)OC(CCC(=O)/C=C/C(=O)O)CC(C)=O (stereo unspecified)	92.5	> 100 µM (inactive)	> 100 µM (inactive)	–	> 100 µM (inactive)	> 100 µM (inactive)	> 100 µM (inactive)	> 100 µM (inactive)	> 100 µM (inactive)	> 100 µM (inactive)	–	> 100 µM (inactive)	> 100 µM (inactive)	> 100 µM (inactive)	> 100 µM (inactive)	93.1 µM (inactive)	–	1.19 µM (inactive)	> 100 µM (inactive)	42.6 µM (inactive)
CC(C)(C)OC(=O)Cn1ncn(NC(=O)Cc2ccccc2)c1=S	> 10	> 10 µM (inactive)	> 10 µM (inactive)	> 10 µM (inactive)	> 10 µM (inactive)	> 10 µM (inactive)	> 10 µM (inactive)	> 10 µM (inactive)	> 10 µM (inactive)	> 10 µM (inactive)	> 10 µM (inactive)	–	> 10 µM (inactive)	> 10 µM (inactive)	> 10 µM (inactive)	> 10 µM (inactive)	> 10 µM (inactive)	> 10 µM (inactive)	> 10 µM (inactive)	–
COC(=O)c1ccccc1CC1Cc2ccc3c(c2C1=O)CCCC3 (stereo unspecified)	25.4	75.5 µM (inactive)	51.4 µM (inactive)	28.8 µM (inactive)	87.7 µM (inactive)	32 µM (inactive)	29.9 µM (inactive)	> 77.4 µM (inactive)	35.3 µM (inactive)	43.3 µM (inactive)	> 95.9 µM (inactive)	–	49 µM (inactive)	> 100 µM (inactive)	35.8 µM (inactive)	37.4 µM (inactive)	40.4 µM (inactive)	57.1 µM (inactive)	23.7 µM (inactive)	60.1 µM (inactive)
Cc1cn(C2CC(OP(=O)(O)OCC3OC(n4c[n+]([BH2-]C#N)c5c(=O)[nH]c(N)nc54)CC3O)C(CO)O2)c(=O)[nH]c1=O (stereo unspecified)	> 100	> 100 µM (inactive)	> 100 µM (inactive)	–	> 100 µM (inactive)	–	> 100 µM (inactive)	> 100 µM (inactive)	> 100 µM (inactive)	> 100 µM (inactive)	–	> 100 µM (inactive)	> 100 µM (inactive)	> 100 µM (inactive)	> 100 µM (inactive)	> 100 µM (inactive)	> 100 µM (inactive)	> 100 µM (inactive)	> 100 µM (inactive)	> 100 µM (inactive)
Cc1cc(=O)[nH]c2cc(NC(=O)C(C)NC(=O)C(C)NC(=O)C(C)NC(=O)OC(C)(C)C)ccc12 (stereo unspecified)	> 15	> 15 µM (inactive)	–	> 15 µM (inactive)	> 15 µM (inactive)	> 15 µM (inactive)	> 15 µM (inactive)	> 15 µM (inactive)	> 15 µM (inactive)	> 15 µM (inactive)	–	> 15 µM (inactive)	> 15 µM (inactive)	> 15 µM (inactive)	> 15 µM (inactive)	> 15 µM (inactive)	> 15 µM (inactive)	> 15 µM (inactive)	> 15 µM (inactive)	> 15 µM (inactive)
CCOC(=O)C1C(c2ccc(O)c(OC)c2)c2c(n[nH]c2O)CC1(C)O (stereo unspecified)	> 100	> 100 µM (inactive)	> 100 µM (inactive)	> 100 µM (inactive)	> 100 µM (inactive)	> 100 µM (inactive)	> 100 µM (inactive)	> 100 µM (inactive)	> 100 µM (inactive)	> 100 µM (inactive)	–	–	> 100 µM (inactive)	> 100 µM (inactive)	> 100 µM (inactive)	> 100 µM (inactive)	> 100 µM (inactive)	> 100 µM (inactive)	> 100 µM (inactive)	–
O=C(NC(CS)C(=O)O)c1c2ccccc2nc2ccccc12 (stereo unspecified)	12.8	> 100 µM (inactive)	> 100 µM (inactive)	21.5 µM (inactive)	23.7 µM (inactive)	34 µM (inactive)	47.5 µM (inactive)	38.7 µM (inactive)	11.2 µM (inactive)	49.1 µM (inactive)	95.3 µM (inactive)	–	> 100 µM (inactive)	38 µM (inactive)	14.5 µM (inactive)	49.3 µM (inactive)	83.8 µM (inactive)	48.8 µM (inactive)	23.9 µM (inactive)	< 0.01 µM (active)
Nc1ccc(CCN2CCN(CCCc3ccccc3)CC2)cc1	21.7	> 100 µM (inactive)	48.1 µM (inactive)	63.7 µM (inactive)	> 100 µM (inactive)	> 100 µM (inactive)	> 100 µM (inactive)	> 100 µM (inactive)	79.4 µM (inactive)	47.1 µM (inactive)	> 100 µM (inactive)	–	39.4 µM (inactive)	98.6 µM (inactive)	> 100 µM (inactive)	28.6 µM (inactive)	–	> 100 µM (inactive)	> 100 µM (inactive)	> 100 µM (inactive)
O=C(Nc1ccc(Cl)cc1)Oc1ccc(C(=S)Nc2ccc(Br)cc2)cc1	11	30.5 µM (inactive)	16.1 µM (inactive)	0.334 µM (active)	34.4 µM (inactive)	20.3 µM (inactive)	2.49 µM (inactive)	39.3 µM (inactive)	27.7 µM (inactive)	6.01 µM (inactive)	26.5 µM (inactive)	–	3.43 µM (inactive)	2.05 µM (inactive)	16.7 µM (inactive)	11.7 µM (inactive)	–	1.63 µM (inactive)	21.1 µM (inactive)	–
